As usually defined, the pIC50 is the negative decadic logarithm of the IC50, by convention in mol/L.

pIC50: −log10 of the molar value.

Common to all, as to type: in vitro ADME
The target in one data set is T1, CYP2C6 (Rattus norvegicus, UniProt P05178).
T1 sequence (P05178 1-490): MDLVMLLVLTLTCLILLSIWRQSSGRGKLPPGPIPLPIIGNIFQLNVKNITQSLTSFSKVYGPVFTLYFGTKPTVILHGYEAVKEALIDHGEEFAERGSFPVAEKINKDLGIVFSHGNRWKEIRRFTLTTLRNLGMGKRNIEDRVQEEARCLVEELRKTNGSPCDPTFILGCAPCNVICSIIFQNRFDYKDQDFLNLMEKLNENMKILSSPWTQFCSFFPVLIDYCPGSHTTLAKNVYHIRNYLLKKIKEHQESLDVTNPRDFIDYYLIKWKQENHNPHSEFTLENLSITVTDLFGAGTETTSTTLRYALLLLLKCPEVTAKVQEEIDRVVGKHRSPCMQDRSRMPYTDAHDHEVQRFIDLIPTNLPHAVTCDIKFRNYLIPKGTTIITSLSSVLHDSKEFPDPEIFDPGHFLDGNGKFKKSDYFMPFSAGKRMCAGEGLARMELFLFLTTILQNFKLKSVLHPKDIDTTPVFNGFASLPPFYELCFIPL
As to the kind of experiment: Fluorescence-based CYP assay, recombinant CYP2C6, substrate EFC. The method, then: (§1) These assays were performed by methods similar to those described by VanAlstine and Hough, Stresser et al., Wulff et al., Henderson et al., and Crespi et al., with minor modifications. All incubations were performed in a final volume of 200 µL of 50 mM potassium phosphate buffer at pH 7.4 containing 1% acetonitrile. CYP inhibitor studies were performed according to the parameters of Table 1. Substrate concentrations were chosen to be near known Km values. As described in the references cited, two different NADPH regenerating systems were used depending on the substrates used (Table 1). Inhibitors were added to either “low” NADPH-regenerating system (final concentration of 8.1 µM NADP^+, 0.4 mM glucose-6-phosphate, 0.4 mM magnesium chloride, 0.2 U/mL glucose-6-phosphate dehydrogenase) or to “high” NADPH-regenerating system (final concentration of 1.3 mM NADP^+, 3.3 mM glucose-6-phosphate, 3.3 mM magnesium chloride, 0.4 U/mL glucose-6-phosphate dehydrogenase) in a total of 0.1 mL buffer. […] For assays utilizing “low” regenerating systems, product formation was monitored continuously by a Victor3 1420 Multilabel Plate Counter at the designated wavelengths (Table 1). […] Product formation was then measured at the designated wavelengths (Table 1). […]

In another data set the target is T2, CYP2C11 (Rattus norvegicus, UniProt P08683).
T2 sequence (P08683 1-500): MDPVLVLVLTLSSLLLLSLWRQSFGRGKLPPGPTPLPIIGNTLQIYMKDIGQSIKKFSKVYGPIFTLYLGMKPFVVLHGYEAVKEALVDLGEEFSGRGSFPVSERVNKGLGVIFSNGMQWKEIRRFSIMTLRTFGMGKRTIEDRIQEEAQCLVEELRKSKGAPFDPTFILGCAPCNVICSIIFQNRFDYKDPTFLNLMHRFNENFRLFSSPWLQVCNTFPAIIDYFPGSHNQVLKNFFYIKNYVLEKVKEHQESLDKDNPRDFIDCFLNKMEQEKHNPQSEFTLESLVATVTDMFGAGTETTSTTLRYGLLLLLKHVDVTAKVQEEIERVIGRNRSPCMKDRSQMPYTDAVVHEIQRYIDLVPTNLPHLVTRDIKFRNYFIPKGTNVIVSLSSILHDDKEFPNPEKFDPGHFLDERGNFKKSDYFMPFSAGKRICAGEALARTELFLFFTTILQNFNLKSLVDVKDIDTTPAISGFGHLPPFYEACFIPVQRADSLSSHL
The data set is described as follows: Fluorescence-based CYP assay, recombinant CYP2C11, substrate DBF. As to the method: as §1

In the next data set the target is CYP2C19 (Homo sapiens, UniProt P33261). As to the kind of experiment: Fluorescence-based CYP assay, recombinant CYP2C19, substrate DBF. As to the method: as §1
Sequence of CYP2C19 (P33261 whole entry): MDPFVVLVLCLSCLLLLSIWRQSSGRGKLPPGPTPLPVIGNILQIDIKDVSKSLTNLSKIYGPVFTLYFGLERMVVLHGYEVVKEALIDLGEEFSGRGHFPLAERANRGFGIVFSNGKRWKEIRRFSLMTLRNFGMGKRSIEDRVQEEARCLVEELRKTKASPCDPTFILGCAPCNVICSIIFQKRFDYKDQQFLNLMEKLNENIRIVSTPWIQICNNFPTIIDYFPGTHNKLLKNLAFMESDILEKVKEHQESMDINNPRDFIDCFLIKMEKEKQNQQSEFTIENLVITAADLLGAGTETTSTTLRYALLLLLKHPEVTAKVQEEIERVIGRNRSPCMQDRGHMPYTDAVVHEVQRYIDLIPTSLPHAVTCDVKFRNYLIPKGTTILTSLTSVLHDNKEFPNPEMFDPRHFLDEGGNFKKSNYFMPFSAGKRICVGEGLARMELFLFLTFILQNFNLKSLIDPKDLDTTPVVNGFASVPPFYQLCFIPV
The next data set deals with T3, CYP2B6 (Homo sapiens, UniProt P20813).
T3 sequence (P20813 1-491): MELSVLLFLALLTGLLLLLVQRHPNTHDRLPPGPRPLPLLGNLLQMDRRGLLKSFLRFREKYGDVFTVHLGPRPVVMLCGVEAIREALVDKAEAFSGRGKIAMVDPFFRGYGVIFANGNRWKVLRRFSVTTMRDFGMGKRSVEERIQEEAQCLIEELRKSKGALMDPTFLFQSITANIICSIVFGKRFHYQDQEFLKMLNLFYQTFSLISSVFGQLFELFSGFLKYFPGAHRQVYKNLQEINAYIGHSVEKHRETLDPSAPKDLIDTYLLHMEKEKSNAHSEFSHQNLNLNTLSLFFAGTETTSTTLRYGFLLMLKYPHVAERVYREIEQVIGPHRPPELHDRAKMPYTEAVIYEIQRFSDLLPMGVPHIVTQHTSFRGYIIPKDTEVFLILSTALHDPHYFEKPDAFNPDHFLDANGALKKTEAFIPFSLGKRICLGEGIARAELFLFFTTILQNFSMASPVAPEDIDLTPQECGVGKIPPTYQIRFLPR
The data set is described as follows: Fluorescence-based CYP assay, recombinant CYP2B6, substrate EFC. As to the method:
as §1

In the case of `Clc1ccccc1C(c1ccccc1)(c1ccccc1)n1ccnc1` [Clotrimazole], at CYP2C6 (positive control), the “Inhibition of CYP2C6 (in words)” value is recorded as “potent inhibitor”. Further, the “Inhibition of CYP2C11 (in words)” value at CYP2C11 (positive control) is “potent inhibitor”. The “Inhibition of CYP2C19 (in words)” value at CYP2C19 (recombinant enzyme) was “potent inhibitor”. Besides, the “Inhibition of CYP2B6 (in words)” value at CYP2B6 (positive control) is on record as “potent inhibitor”.

Turning to `Clc1ccccc1C(c1ccccc1)(c1ccccc1)n1cccn1` [TRAM-34, 1-[(2-chlorophenyl)diphenylmethyl]-1H-pyrazole], the negative-log IC50 (pIC50) at CYP2C6 (recombinant rat CYP2C6, EFC 5 µM) is 5.54; at CYP2C11, 4.90; on CYP2C19, 5.74; on CYP2B6, 6.05.

The record behind these values is paper PMC3646888 (PLoS ONE, 2013).
